Reference: ChEMBL document CHEMBL5034046, “Discovery of Small-Molecule CD33 Pre-mRNA Splicing Modulators” (ACS Med Chem Lett, 2022)
Converted amounts (≈) assume the structure as drawn.

Assays:
[1] = Modulation of CD33 pre-mRNA splicing in human K562 cells assessed as induction of exon 2 skipping measured after 18 to 24 hrs by Nano-Luciferase reporter assay; format: cell-based
K562 = test: Modulation of CD33 pre-mRNA splicing in human K562 cells assessed as induction of exon 2 skipping at 25 uM measured after 18 to 24 hrs by Nano-Luciferase reporter assay; format: cell-based; details: filed as modulator, time 18-24 hrs
[2] = Modulation of CD33 pre-mRNA splicing in human K562 cells assessed as induction of exon 2 skipping measured after 16 to 24 hrs by Nano-Luciferase counter screen assay; format: cell-based
[3] = […] level in human THP-1 cell surface incubated for 48 to 72 hrs by high content imaging assay; format: functional
[4] = […] level in human THP-1 cell surface at top concentration incubated for 48 to 72 hrs by high content imaging assay; format: functional; details: time 48-72 hrs
[5] = Increase in CD11c level in human THP-1 cell surface incubated for 48 to 72 hrs by high content imaging assay; format: functional
THP-1 = test: Cytotoxicity against human THP-1 cells assessed as reduction in cell viability by DAPI staining based assay; format: functional
[6] = molecular target: Proprotein convertase subtilisin/kexin type 9 (Homo sapiens, UniProt Q8NBP7); test: Inhibition of PCSK9 translation in human THP-1 cells by AlphaLISA assay; format: cell-based
Sequence of Proprotein convertase subtilisin/kexin type 9 (Q8NBP7 31-152 limits assumed): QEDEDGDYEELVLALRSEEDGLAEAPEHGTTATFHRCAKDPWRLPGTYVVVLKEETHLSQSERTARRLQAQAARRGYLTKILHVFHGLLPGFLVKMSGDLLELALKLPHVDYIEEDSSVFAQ
Sequence of Proprotein convertase subtilisin/kexin type 9 (Q8NBP7 153-692 limits assumed): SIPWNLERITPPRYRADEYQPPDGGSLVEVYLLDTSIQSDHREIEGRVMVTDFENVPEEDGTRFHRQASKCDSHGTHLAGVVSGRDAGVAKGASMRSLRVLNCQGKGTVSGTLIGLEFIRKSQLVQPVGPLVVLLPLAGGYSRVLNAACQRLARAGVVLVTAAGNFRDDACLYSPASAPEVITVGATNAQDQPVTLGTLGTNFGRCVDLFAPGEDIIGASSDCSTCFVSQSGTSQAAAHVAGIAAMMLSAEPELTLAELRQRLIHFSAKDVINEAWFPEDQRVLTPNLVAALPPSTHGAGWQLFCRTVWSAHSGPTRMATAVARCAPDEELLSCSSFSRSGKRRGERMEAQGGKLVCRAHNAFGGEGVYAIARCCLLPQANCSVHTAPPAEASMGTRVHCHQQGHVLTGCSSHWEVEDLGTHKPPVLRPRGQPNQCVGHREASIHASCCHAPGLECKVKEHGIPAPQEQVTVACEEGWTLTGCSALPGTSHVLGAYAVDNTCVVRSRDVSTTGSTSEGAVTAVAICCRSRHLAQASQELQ

[7] = Apparent permeability in MDCK cells; format: ADME, cell-based, Canis lupus familiaris; details: dog
[8] = Distribution coefficient, logD of compound at pH 7.4 by shake flask method; format: physicochemical; details: octanol/water
[9] = Solubility of compound at pH 7.4; format: physicochemical; details: buffer
[10] = Cytotoxicity against human THLE cells by ATP depletion assay; format: cell-based
[11] = molecular target: T1, Voltage-gated inwardly rectifying potassium channel KCNH2 (Homo sapiens, UniProt Q12809); test: Displacement of [3H]-dofetilide from human ERG
T1 sequence (Q12809 whole entry): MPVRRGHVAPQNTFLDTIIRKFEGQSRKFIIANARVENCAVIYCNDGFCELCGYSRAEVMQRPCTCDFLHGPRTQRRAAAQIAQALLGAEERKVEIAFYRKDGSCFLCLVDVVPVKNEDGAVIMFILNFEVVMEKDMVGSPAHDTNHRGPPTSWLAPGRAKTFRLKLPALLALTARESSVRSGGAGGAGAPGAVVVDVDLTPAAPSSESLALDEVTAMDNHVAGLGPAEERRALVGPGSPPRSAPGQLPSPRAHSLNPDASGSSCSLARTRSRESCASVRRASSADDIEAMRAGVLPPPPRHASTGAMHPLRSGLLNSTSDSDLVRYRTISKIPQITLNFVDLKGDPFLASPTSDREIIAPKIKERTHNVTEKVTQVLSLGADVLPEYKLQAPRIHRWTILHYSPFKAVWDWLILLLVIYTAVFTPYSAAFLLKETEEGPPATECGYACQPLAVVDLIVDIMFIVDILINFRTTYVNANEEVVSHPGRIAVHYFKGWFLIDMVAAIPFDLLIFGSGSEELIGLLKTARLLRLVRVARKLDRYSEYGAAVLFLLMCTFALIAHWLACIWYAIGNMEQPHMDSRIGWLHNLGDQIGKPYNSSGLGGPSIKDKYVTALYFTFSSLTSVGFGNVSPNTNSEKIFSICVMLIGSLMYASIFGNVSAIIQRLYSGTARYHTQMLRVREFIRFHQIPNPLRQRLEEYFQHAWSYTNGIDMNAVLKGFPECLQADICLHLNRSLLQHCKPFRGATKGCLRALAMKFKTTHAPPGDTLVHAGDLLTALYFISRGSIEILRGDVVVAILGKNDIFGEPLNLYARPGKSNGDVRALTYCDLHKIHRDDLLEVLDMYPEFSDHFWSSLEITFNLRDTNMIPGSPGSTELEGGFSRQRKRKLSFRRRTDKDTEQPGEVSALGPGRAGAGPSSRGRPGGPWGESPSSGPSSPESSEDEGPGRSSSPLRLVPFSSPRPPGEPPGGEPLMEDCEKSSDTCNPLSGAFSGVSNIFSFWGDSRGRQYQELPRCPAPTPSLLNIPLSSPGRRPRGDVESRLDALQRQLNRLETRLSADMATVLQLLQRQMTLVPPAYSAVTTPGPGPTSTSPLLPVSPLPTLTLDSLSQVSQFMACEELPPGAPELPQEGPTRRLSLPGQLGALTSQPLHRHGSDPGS

[12] = molecular target: T1, Voltage-gated inwardly rectifying potassium channel KCNH2; test: Inhibition of human ERG
[13] = molecular target: T2, Alpha-1A adrenergic receptor (Homo sapiens, UniProt P35348); test: Agonist activity at adrenergic alpha-1A receptor (unknown origin) expressed in cells assessed as change in fluorescence measured after 24 hrs by FLIPR assay; format: functional, cell-based
T2 sequence (P35348 whole entry): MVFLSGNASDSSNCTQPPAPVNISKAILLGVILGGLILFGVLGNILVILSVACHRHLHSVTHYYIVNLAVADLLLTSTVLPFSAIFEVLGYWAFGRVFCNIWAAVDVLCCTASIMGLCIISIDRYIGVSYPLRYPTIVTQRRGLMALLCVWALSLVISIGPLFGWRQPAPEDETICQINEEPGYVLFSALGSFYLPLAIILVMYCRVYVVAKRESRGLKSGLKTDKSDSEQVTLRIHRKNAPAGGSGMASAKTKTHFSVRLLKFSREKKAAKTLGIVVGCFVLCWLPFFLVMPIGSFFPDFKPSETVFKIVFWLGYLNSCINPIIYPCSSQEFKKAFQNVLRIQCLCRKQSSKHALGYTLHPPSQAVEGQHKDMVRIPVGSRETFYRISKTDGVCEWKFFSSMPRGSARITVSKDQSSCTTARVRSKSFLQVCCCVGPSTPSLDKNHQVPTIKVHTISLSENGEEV

[14] = molecular target: Beta-2 adrenergic receptor (Homo sapiens, UniProt P07550); test: Agonist activity at adrenergic beta2 receptor (unknown origin) expressed in cells measured after 90 mins by beta-arrestin recruitment assay; format: functional, cell-based
Sequence of Beta-2 adrenergic receptor (P07550 whole entry): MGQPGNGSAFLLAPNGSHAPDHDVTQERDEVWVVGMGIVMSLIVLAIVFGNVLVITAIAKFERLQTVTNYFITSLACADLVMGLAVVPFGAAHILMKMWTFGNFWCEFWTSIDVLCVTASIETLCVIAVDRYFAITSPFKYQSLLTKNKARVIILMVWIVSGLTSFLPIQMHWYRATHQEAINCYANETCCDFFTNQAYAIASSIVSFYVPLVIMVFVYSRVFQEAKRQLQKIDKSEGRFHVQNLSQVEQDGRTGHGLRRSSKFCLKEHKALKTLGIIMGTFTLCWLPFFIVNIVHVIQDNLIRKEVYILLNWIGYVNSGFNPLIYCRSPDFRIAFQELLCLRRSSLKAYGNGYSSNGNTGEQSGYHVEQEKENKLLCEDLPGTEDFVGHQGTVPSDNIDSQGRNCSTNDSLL

Cannabinoid receptor 1 = Cannabinoid receptor 1 (Homo sapiens, UniProt P21554); test: Agonist activity at cannabinoid receptor 1 (unknown origin) expressed in cells measured after 90 mins by beta-arrestin recruitment assay; format: functional, cell-based
Sequence of Cannabinoid receptor 1 (P21554 whole entry): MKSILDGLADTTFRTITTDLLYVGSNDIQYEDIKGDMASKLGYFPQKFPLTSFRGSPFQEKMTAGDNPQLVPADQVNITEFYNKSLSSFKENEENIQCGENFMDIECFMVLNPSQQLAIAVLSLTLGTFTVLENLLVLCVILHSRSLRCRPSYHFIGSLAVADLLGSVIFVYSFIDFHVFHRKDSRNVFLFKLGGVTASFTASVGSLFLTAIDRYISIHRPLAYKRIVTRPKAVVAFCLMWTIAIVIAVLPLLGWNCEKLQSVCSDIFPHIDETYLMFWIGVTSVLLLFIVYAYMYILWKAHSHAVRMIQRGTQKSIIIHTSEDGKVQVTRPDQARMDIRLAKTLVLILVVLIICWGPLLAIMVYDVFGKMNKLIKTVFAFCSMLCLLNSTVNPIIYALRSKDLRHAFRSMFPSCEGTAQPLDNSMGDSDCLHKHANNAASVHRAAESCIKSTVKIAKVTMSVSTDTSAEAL

D(1A) dopamine receptor = D(1A) dopamine receptor (Homo sapiens, UniProt P21728); test: Agonist activity at dopamine D1 receptor (unknown origin) expressed in cells assessed as change in fluorescence measured after 24 hrs by FLIPR assay; format: functional, cell-based
Histamine H1 receptor = Histamine H1 receptor (Homo sapiens, UniProt P35367); test: Agonist activity at histamine H1 receptor (unknown origin) expressed in cells assessed as change in fluorescence measured after 24 hrs by FLIPR assay; format: functional, cell-based
[15] = molecular target: 5-hydroxytryptamine receptor 2B (Homo sapiens, UniProt P41595); test: Agonist activity at serotonin 2B receptor (unknown origin) expressed in cells assessed as change in fluorescence measured after 24 hrs by FLIPR assay; format: functional, cell-based
[16] = molecular target: Sodium-dependent serotonin transporter (Homo sapiens) (UniProt P31645); test: Inhibition of serotonin transporter (unknown origin) expressed in cells incubated for 30 mins by amine transporter assay; format: cell-based
Sequence of Sodium-dependent serotonin transporter (Homo sapiens) (P31645 whole entry, looked up): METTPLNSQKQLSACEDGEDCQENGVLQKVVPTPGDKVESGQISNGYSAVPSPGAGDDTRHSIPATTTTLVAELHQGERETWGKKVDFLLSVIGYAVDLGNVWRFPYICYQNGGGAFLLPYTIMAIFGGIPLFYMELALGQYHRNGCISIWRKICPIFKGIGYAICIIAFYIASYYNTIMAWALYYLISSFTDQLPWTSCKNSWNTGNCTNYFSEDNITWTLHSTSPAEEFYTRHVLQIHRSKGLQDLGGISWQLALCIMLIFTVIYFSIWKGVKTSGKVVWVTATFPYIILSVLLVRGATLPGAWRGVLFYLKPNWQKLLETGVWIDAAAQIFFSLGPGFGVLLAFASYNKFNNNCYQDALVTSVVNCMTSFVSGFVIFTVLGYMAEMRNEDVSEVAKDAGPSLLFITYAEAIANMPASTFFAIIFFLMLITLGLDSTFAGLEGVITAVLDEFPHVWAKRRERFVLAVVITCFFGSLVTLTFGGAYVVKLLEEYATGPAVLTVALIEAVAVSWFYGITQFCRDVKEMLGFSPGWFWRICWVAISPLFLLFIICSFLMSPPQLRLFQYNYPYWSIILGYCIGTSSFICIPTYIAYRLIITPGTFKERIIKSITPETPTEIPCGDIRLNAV

[17] = molecular target: Sodium-dependent noradrenaline transporter (Homo sapiens) (UniProt P23975); test: Inhibition of norepinephrine transporter (unknown origin) expressed in cells incubated for 60 mins by amine transporter assay; format: cell-based
Sequence of Sodium-dependent noradrenaline transporter (Homo sapiens) (P23975 whole entry): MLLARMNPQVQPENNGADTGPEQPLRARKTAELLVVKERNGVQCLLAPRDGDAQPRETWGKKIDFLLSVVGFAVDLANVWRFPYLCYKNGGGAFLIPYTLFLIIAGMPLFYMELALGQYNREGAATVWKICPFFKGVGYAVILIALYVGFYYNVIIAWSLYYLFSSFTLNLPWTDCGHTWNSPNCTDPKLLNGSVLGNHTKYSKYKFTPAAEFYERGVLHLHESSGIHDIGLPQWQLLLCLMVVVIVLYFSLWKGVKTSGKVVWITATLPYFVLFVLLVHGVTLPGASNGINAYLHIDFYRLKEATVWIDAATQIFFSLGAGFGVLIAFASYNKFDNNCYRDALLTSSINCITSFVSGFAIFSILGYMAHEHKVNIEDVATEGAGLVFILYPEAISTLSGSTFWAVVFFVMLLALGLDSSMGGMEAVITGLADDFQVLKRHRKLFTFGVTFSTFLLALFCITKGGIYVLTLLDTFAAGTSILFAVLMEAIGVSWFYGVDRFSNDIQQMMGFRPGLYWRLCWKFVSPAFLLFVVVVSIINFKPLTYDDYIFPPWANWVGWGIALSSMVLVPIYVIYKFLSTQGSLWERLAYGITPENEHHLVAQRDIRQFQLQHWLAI

[18] = molecular target: Sodium-dependent dopamine transporter (Homo sapiens) (UniProt Q01959); test: Inhibition of dopamine transporter (unknown origin) expressed in cells incubated for 60 mins by amine transporter assay; format: cell-based
[19] = molecular target: T3, Muscarinic acetylcholine receptor M1 (Homo sapiens, UniProt P11229); test: Antagonist activity at muscarinic M1 receptor (unknown origin) expressed in cells assessed as change in fluorescence measured after 24 hrs by FLIPR assay; format: functional, cell-based
T3 sequence (P11229 whole entry): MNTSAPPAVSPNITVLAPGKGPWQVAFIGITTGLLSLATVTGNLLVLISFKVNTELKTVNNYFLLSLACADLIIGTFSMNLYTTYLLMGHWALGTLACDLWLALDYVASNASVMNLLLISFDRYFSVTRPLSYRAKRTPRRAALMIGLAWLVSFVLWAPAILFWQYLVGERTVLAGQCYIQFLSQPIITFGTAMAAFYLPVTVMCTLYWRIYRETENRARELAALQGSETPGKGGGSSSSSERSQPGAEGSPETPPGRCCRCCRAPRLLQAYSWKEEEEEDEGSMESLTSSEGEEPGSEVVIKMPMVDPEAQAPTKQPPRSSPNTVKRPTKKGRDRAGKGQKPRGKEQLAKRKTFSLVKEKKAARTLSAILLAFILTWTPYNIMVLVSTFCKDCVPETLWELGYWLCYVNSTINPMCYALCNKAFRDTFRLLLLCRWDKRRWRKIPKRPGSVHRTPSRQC

[20] = molecular target: Bromodomain-containing protein 4 (Homo sapiens, UniProt O60885); test: Inhibition of His-tagged BRD4 (unknown origin) using tetra-acetylated histone H4 peptide as substrate by fluorescent polarization binding assay
[21] = Inhibition of PDE3A1 (unknown origin) assessed as conversion of cAMP to AMP measured after 30 mins by YSi scintillation proximity assay; set-up: species or system Homo sapiens
[22] = molecular target: 3',5'-cyclic-AMP phosphodiesterase 4D (Homo sapiens, UniProt Q08499); test: Inhibition of PDE4D3 (unknown origin) assessed as conversion of cAMP to AMP measured after 30 mins by YSi scintillation proximity assay
Sequence of 3',5'-cyclic-AMP phosphodiesterase 4D (Q08499 whole entry): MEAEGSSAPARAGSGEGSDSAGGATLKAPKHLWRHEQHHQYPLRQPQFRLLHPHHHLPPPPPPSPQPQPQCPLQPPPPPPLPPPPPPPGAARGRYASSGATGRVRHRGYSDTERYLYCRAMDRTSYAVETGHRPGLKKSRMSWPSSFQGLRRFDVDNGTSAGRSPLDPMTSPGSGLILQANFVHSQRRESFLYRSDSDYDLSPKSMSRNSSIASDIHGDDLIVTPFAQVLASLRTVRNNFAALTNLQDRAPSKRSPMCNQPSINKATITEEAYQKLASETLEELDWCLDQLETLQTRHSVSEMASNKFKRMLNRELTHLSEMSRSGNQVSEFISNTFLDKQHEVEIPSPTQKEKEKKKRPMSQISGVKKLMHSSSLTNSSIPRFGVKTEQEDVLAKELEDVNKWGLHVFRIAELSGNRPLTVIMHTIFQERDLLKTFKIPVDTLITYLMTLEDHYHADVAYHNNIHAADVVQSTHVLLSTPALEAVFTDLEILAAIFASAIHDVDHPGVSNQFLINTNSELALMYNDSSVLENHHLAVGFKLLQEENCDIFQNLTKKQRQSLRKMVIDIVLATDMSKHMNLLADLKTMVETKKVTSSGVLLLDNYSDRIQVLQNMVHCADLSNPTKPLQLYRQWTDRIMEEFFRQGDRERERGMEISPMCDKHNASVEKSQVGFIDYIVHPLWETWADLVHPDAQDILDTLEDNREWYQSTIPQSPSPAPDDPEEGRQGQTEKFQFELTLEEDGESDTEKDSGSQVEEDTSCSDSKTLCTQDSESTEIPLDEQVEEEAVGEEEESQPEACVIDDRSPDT

[23] = molecular target: cGMP-specific 3',5'-cyclic phosphodiesterase (Homo sapiens, UniProt O76074); test: Inhibition of PDE5A1 (unknown origin) assessed as conversion of cAMP to AMP measured after 30 mins by YSi scintillation proximity assay

| Compound | EC50 [1] [µM] | EC50 [3] [µM] | EC50 [5] [µM] | IC50 [6] [µM] | Emax (K562) [%] | EC50 [2] [µM] | Emax [4] [%] | EC50 (THP-1) [µM] | further results |
| --- | --- | --- | --- | --- | --- | --- | --- | --- | --- |
| CNc1cncc(-c2ccc(C(=O)N(c3ncccc3Cl)[C@@H]3CCCNC3)cc2)n1 | 5.6 | 6 | > 10 | 3.1 | 100 | > 10 | -25 | > 10 | – |
| Cc1ccc2nnn(-c3ccc(C(=O)N(c4ncccc4Cl)[C@@H]4CCCNC4)cc3)c2n1 | 4.4 | – | – | 0.9 | 155 | > 25 | – | – | – |
| Cc1cncc(-c2ccc(C(=O)N(c3ncccc3Cl)[C@@H]3CCCNC3)cc2)n1 | > 10 | > 30 | > 30 | 2.8 | – | > 10 | -32 | > 30 | – |
| O=C(c1ccc(-n2nnc3cccnc32)cc1)N(c1ncccc1Cl)[C@@H]1CCCNC1 | 4.5 | – | – | – | 100 | > 10 | – | – | – |
| CN(C)c1cncc(-c2ccc(C(=O)N(c3ncccc3Cl)[C@@H]3CCCNC3)cc2)n1 | > 10 | 39 | > 50 | 3 | – | > 10 | -41 | > 50 | – |
| Cc1cccnc1N(C(=O)c1ccc(-c2cnn3cccnc23)cc1)[C@@H]1CCCNC1 | 3.7 | 33 | > 50 | 2.2 | 145 | > 10 | -41 | > 50 | – |
| Cc1cnc2c(-c3ccc(C(=O)N(c4ncccc4C)[C@@H]4CCCNC4)cc3F)cnn2c1 | 7.8 | 2.1 | > 10 | 1.7 | 100 | > 10 | -43 | > 10 | Papp [7]: 10.1 ×10⁻⁶ cm/s; logD [8]: 1.1; solubility [9]: 460 µM (≈ 204 µg/mL); IC50 [10]: 204 µM; Ki [11]: 7.2 µM; EC50 [12]: 12.7 µM; EC50 [13]: > 10 µM; EC50 [14]: > 10 µM; EC50 (Cannabinoid receptor 1): > 10 µM; EC50 (D(1A) dopamine receptor): > 10 µM; EC50 (Histamine H1 receptor): > 10 µM; EC50 [15]: > 10 µM; Kb [16]: > 10 µM; Kb [17]: > 10 µM; Kb [18]: > 10 µM; Ki [19]: 0.4 µM; IC50 [20]: > 25 µM; IC50 [21]: 99 µM; IC50 [22]: 39 µM; IC50 [23]: > 200 µM |

Now from value to compound, other results behind:

| EC50 [1] [µM] | EC50 [3] [µM] | EC50 [5] [µM] | IC50 [6] [µM] | Compound | Emax (K562) [%] | EC50 [2] [µM] | Emax [4] [%] | EC50 (THP-1) [µM] | further results |
| --- | --- | --- | --- | --- | --- | --- | --- | --- | --- |
| 0.58 | – | – | 1.3 | O=C(c1ccc(-c2cnn3cccnc23)cc1)N(c1nccc2ccccc12)[C@@H]1CCCNC1 | 206 | > 10 | – | – | – |
| 3.6 | 8.3 | > 50 | 2.5 | COC(=O)c1c(-c2ccc(C(=O)N(c3ncccc3C)[C@@H]3CCCNC3)cc2)cnn1C | 220 | > 10 | -35 | > 50 | – |
| 1.4 | – | – | – | Cc1cnc2c(c1)nnn2-c1ccc(C(=O)N(c2ncccc2Cl)[C@@H]2CCCNC2)cc1 | 80 | > 10 | – | – | – |
